Like-named read-outs stand apart in the source and are kept apart here.

Data set [1] has as its system LNCaP cells. The note with it: 10 ng/ml.
Description: FIG. 12A Evaluation of cell death and caspase activation in RWPE-1 cells infected with TW3′ or decoy15/16 vectors and treated with 10 ng/ml of docetaxel. Caspase activation was measured after 4 h of treatment. FIG. 12B Evaluation of cell death and caspase activation in LNCaP cells infected with TW or TWmiR-15a/miR-16 vectors and exposed to 10 ng/ml of docetaxel. FIG. 12C-D Evaluation of cell death and caspase activation in miR15a/miR-16 defective or non-defective (normal) primary tumor cells transduced as indicated and treated with 10 ng/ml docetaxel. FIG. 12C. Cell death was measured after 24 h exposure to docetaxel. FIG. 12D. Caspase activation in LNCaP and primary tumor cells was measured after 18 h of treatment. Data are mean±s.d. of at least three independent experiments for each group.
Cell death was evaluated by trypan blue staining, PI staining and flow cytometry analysis, Apo-percentage assay (Biocolor) and Cell Titer kit (Promega). Caspase activation was detected using APO-one Homogeneous Caspase3/7 Assay Kit (Promega).
Data set [2] relates to Wnt3a 3′UTR. Briefly: Luciferase reporter assay, pGL3-3′UTR cotransfected with miR oligos. It is filed as cell-based, human. The note with it: K562 cells, 25 pmol oligo, 48 hours post-transfection, vs scrambled oligos. Here is the method:
(§1) 3′UTR segments of Bcl-2, cyclin D1 and Wnt3a were amplified by PCR from normal human genomic DNA and subcloned into the 3′UTR of the firefly luciferase coding sequence into pGL3-Promoter (Promega), see Supplementary Methods. Then K562 (5×10^4 cells per well) were transfected using Lipofectamine 2000 (Invitrogen) following the manufacturer's instructions. The transfection mix included: (a) 0.8 μg of pGL3-3′UTR plasmid and 50 ng of the control vector pRL-TK (Promega); (b) 25 pmol of either non-targeting RNA control (scrambled) or miR-15a or miR-16 oligonucleotides (Ambion). Forty-eight hours post-transfection, firefly and renilla luciferase activities were measured using the Dual Luciferase Assay kit (Promega). Transfection efficiencies were normalized by calculating the ratio of firefly to renilla. For each construct the relative luciferase activities were calculated by dividing the values obtained in the transfection of miR-15a and miR-16 by those of miR scrambled. Each experiment was performed in duplicate and replicated five times.
(§2) The miR-15a/miR-16 target genes UTRs were cloned in the Xba I site of pGL3 promoter, immediately downstream from the stop codon of the luciferase coding sequence. For Bcl-2, a 3′UTR of 1329 bp fragment was amplified, corresponding to residues 2446-3774 of Genbank Acc No M14745. For cyclin D1 3′UTR, a 1036 bp fragment was amplified ([…] of No NM_053056). For Wnt3a 3′UTR, a 906 bp fragment was amplified (residues 2026-2932 of No NM_033131.2). For 3′UTR cyclin D1 and Wnt3a mutagenesis, a five nucleotide mutation was inserted in the “seed” sequences interacting with miR-15a and miR-16 (see FIGS. 13A-C). Modified and HPLC purified oligonucleotides (Invitrogen) were used for amplification and mutagenesis, performed with Pfu enzyme following the in vitro mutagenesis kit protocol (Invitrogen). Transfection efficiencies of luciferase assays were normalized by calculating the ratio firefly/renilla. For each construct the relative luciferase activities were obtained by dividing the values obtained in the transfection of miR-15a and miR-16 by those of the non targeting miR scrambled. Each experiment was performed in duplicate and replicated five times.
(§3) To validate our targets, we subcloned the 3′UTR of these genes at the 3′ of the cDNA encoding luciferase in an expression construct and performed cotransfection experiments with miR-15a/miR-16. We narrowed our analysis to 1 kb regions harbouring the putative miR-15a/miR-16 target sites. The Bcl-2 3′UTR was tested in parallel as positive control. Luciferase assay was performed by cotransfecting pGL3-3′UTR vectors along with synthetic miR-15a, miR-16 and a control miR with a scrambled sequence.
For orientation: A reporter such as luciferase makes a cellular process visible.

In data set [3] the test system is cyclin D1 3′UTR. Described as above. It is filed as cell-based, human. The note with it: K562 cells, 25 pmol oligo, 48 hours post-transfection, vs scrambled oligos. Here is the method: as §1, §2, §3
The test system of data set [4] is Bcl-2 3′UTR. Briefly: Luciferase reporter assay, pGL3-3′UTR cotransfected with miR oligos (positive control). The note with it: K562 cells, 25 pmol oligo, 48 hours post-transfection, vs scrambled oligos. It is filed as cell-based, human. Here is the method: as §1
The miR-15a/miR-16 target genes UTRs were cloned in the Xba I site of pGL3 promoter, immediately downstream from the stop codon of the luciferase coding sequence. For Bcl-2, a 3′UTR of 1329 bp fragment was amplified, corresponding to residues 2446-3774 of Genbank Acc No M14745. […]

Data set [5] relates to Pim-1 UTR. Briefly: Luciferase reporter assay, pGL3-3′UTR cotransfected with miR oligos. The data set is classed as cell-based, human. As to conditions: K562 cells, 48 hours post-transfection, vs scrambled oligos.

On to `CC(=O)O[C@@]12CO[C@@H]1C[C@H](O)[C@@]1(C)C(=O)[C@H](O)C3=C(C)[C@@H](OC(=O)[C@H](O)[C@@H](NC(=O)OC(C)(C)C)c4ccccc4)C[C@@](O)([C@@H](OC(=O)c4ccccc4)[C@H]21)C3(C)C` [docetaxel], for which the “Cytotoxic activity of docetaxel” value in data set [1] (empty vector-transduced LNCaP cells) is “scarcely sensitive”; in data set [1] (miR-15a/miR-16 reconstituted LNCaP cells) it was “massively killed”.

For the molecule “miR-15a: mature miR 15, SEQ ID NO 4, 5′-UAGCAGCACAUAAUGGUUUGUG-3′; synthetic oligonucleotide (Ambion) in reporter assays (listed as RNA, chemistry not given here; listed as Homo sapiens)”, the Luciferase reporter activity entry in data set [2] was “consistent reduction in reporter activity”; in data set [3] it was “consistent reduction in reporter activity”; in data set [4], “consistent reduction in reporter activity”; in data set [5], “non-targeted region”.

For “miR-16: mature miR 16, SEQ ID NO. 5, 5′-UAGCAGCACGUAAAUAUUGGCG-3′; synthetic oligonucleotide (Ambion) in reporter assays (listed as RNA, chemistry not given here; listed as Homo sapiens)”, the Luciferase reporter activity entry in data set [2] is recorded as “consistent reduction in reporter activity”; in data set [3], “consistent reduction in reporter activity”; in data set [4], “consistent reduction in reporter activity”; in data set [5], “non-targeted region”.

The record behind these values is patent US9702880B2, “Antisense RNA for treating cancer and inhibition of metastasis and vectors for antisense sequestration” (Istituto Superiore di Sanità, priority 2008, dated 2017).
